For one compound, speed of sound and mass density results are on record in the NIST ThermoML archive (doi:10.1016/j.jct.2011.04.010).

Structures are written as SMILES. Numbers after ± are expanded uncertainties.

The data set is described as follows: xn = mol fraction of the nth substance listed. The following applies: 101 kPa, Liquid, x2 = 0; for mass density: Vibrating tube method.

The speed of sound is how fast a sound wave travels through the sample. Broadly, the mass density is mass per unit of volume.

Consider `CC#N` [acetonitrile] + COCCO, for which, where the note is “298.15 K, Ecolab MPFU speed of sound meter”, the speed of sound came out at 1279.6 ± 2 m/s. Besides, the mass density is, setting by setting: (308.15 K) 765.735 ± 0.13 kg/m3; (318.15 K) 755.763 ± 0.14 kg/m3.
